The values below come from US20100272829A1, “COMPOSITION FOR TRANSDERMAL OR TRANSMUCOSAL ADMINISTRATION” (priority 2007, published 2010).

For data set [1], the system named is Malassezia furfur NBRC 0656. Nature of the data set: Antibacterial test I (MIC) by a liquid culture method. It counts as cell-based. The conditions noted are these: Sabouraud glucose medium + 1% olive oil, shaking at 30° C., 10^6cfu/mL. As for the experimental part: With respect to the composition of zinc pyrithione and hydrous titanium oxide of Example 2, an antibacterial test (MIC) against Malassezia furfur by a liquid culture method was performed in comparison with zinc pyrithione.
Sample 17: Composition of zinc pyrithione (manufactured by Arch Chemicals, Inc.) and hydrous titanium oxide (Example 2) Sample 18: Zinc pyrithione (manufactured by Arch Chemicals, Inc.) Test fungi: Malassezia furfur NBRC 0656 Test medium: 1% olive oil is added to Sabouraud glucose medium Test conditions: shaking culture at 30° C. for 4 days (120 rpm)

A short description of data set [2]: Solubility in artificial seawater (zinc determined by atomic absorption spectrometry). It counts as physicochemical. As for the experimental part: The solubility of samples shown below in artificial sweater was measured.
Artificial sweater (pH of 7.8) was added to each sample shown below to make total amount of 500 mL, followed by shaking at 20° C. for 24 hours. After filtration, determination of zinc was performed by subjecting the filtrate to atomic absorption spectrometry.

Data set [3] is described as follows: Yellowness (b* value) of water suspension samples allowed to stand outside for 10 days (photolysis). It is filed as physicochemical. The conditions noted are these: suspension in distilled water, dried and ground.
Experimental: The following water suspension samples are charged in a glass bottle, allowed to stand outside for 10 days, dried and ground, and then yellowness (b* value) was measured by a colorimeter.
Data set [4] concerns Malassezia furfur NBRC 0656. Nature of the data set: Antibacterial test II (MIC) by an agar medium. It is filed as cell-based. The conditions noted are these: YM agar medium added with olive oil, 28° C., 10^5cfu/mL. As for the experimental part:
With respect to the composition of zinc pyrithione and hydrous titanium oxide (Example 3), an antibacterial test (MIC) against Malassezia furfur by an agar medium was performed in comparison with zinc pyrithione.
Sample 19: Composition of zinc pyrithione (manufactured by Kolon Life Science Inc.) and hydrous titanium oxide (Example 3) Sample 20: Zinc pyrithione (manufactured by Kolon Life Science Inc.) Test fungi: Malassezia furfur NBRC 0656 Test medium: YM agar medium added with olive oil Test conditions: culture at 28° C. for 7 days

[5] abbreviates: artificial seawater pH 7.8, shaking at 20° C. for 24 hours, filtrate.

For zinc pyrithione [Sample 2], the “MIC, 2 days” value in data set [1] (2 days) worked out at 6.25 µg/mL. The “MIC, 4 days” value in data set [1] (4 days) was found to be 6.25 µg/mL. Moreover, in data set [2] (setting [5]), the “Solubility in artificial seawater I: Quantitative value of zinc” value came to 1.16 µg/mL and the “Solubility in artificial seawater I: Value in terms of zinc pyrithione” value stood at 5.64 µg/mL.

For zinc pyrithione [Sample 9], the “Yellowness (b* value)” value in data set [3] stood at 8.80.

Consider zinc pyrithione [Sample 6], for which the “MIC, 7 days” value in data set [4] came to 6.25 µg/mL. For the same substance, the “Solubility in artificial seawater II: Value in terms of zinc pyrithione” value in data set [2] (artificial seawater pH 7.8, 20° C., 24 hours) was 5.24 µg/mL. Further, the “Solubility in artificial seawater II: Quantitative value of zinc” value in data set [2] (artificial seawater pH 7.8, 20° C., 24 hours, for samples 7 and 8 zinc derived from zinc pyrithione and zinc oxide) came out at 1.07 µg/mL.
